Reference: patent US20020049223A1, “Quinoline and naphthyridine carboxylic acid antibacterials” (priority 1999, published 2002)
Counter-ions that a name gives are not always drawn.

What was measured:
Assay in all cases: Assay B: in vitro antibacterial activity, broth microdilution MIC (NCCLS)
Format in all cases: cell-based
[1] = system: Staphylococcus aureus ATCC 6538P; details: Table 2, Assay B, cation-adjusted Mueller Hinton broth, 35° C., 16 to 20 hr; code A = Staphylococcus aureus ATCC 6538P; unit assumed
Outline: (§1)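 Serial two-fold dilutions in cation-adjusted Mueller Hinton broth; inoculum ~5×10^5 CFU/mL from overnight cultures; 35° C, ambient air, 16 to 20 hr. MIC read visually as lowest concentration completely inhibiting growth. S. pneumoniae: 3% lysed horse blood, 20 to 24 hr; H. influenzae: 5 g/L yeast extract, 0.3 mmol/L hematin, 15 mg/L NAD, 20 to 24 hr.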

[2] = system: Haemophilus influenzae DILL AMP R; details: Table 2, Assay B, Mueller Hinton broth with yeast extract, hematin and NAD, 20 to 24 hr; code E = Haemophilus influenzae DILL AMP R; unit assumed
Outline: as §1

[3] = system: Escherichia coli JUHL; details: Table 2, Assay B, cation-adjusted Mueller Hinton broth, 35° C., 16 to 20 hr; code D = Escherichia coli JUHL; unit assumed
Outline: as §1

[4] = system: Enterococcus faecalis PIU 1967; details: Table 2, Assay B, cation-adjusted Mueller Hinton broth, 35° C., 16 to 20 hr; code B = Enterococcus faecalis PIU 1967; unit assumed
Outline: as §1

[5] = system: Streptococcus pneumoniae ATCC 6303; details: Table 2, Assay B, Mueller Hinton broth with 3% lysed horse blood, 20 to 24 hr; code F = Streptococcus pneumoniae ATCC 6303; unit assumed
Outline: as §1

| Compound | Antibacterial Activity (MIC's), A [1] | Antibacterial Activity (MIC's), E [2] | Antibacterial Activity (MIC's), D [3] | Antibacterial Activity (MIC's), B [4] | Antibacterial Activity (MIC's), F [5] |
| --- | --- | --- | --- | --- | --- |
| COc1c(-c2cc3c(s2)C(=O)CCC3)ccc2c(=O)c(C(=O)O)cn(C3CC3)c12 [Example 61, 1-cyclopropyl-8-methoxy-4-oxo-7-(7-oxo-4,5,6,7-tetrahydro-1-benzothien-2-yl)-1,4-dihydro-3-quinolinecarboxylic acid] | 0.03 µg/mL | 0.125 µg/mL | 2 µg/mL | 0.25 µg/mL | 0.125 µg/mL |
| COc1c(-c2cc3c(s2)CCC(=O)C3)ccc2c(=O)c(C(=O)O)cn(C3CC3)c12 [Example 53, 1-cyclopropyl-8-methoxy-4-oxo-7-(5-oxo-4,5,6,7-tetrahydro-1-benzothien-2-yl)-1,4-dihydro-3-quinolinecarboxylic acid] | 0.06 µg/mL | 1 µg/mL | 8 µg/mL | 2 µg/mL | 0.5 µg/mL |
| COc1c(-c2cc3c(s2)CCCC3=NN(C)C(N)=S)ccc2c(=O)c(C(=O)O)cn(C3CC3)c12 [Example 105, 7-((4E/Z)-4-[(aminocarbothioyl)(methyl)hydrazono)-4,5,6,7-tetrahydro-1-benzothien-2-yl)-1-cyclopropyl-8-methoxy-4-oxo-1 4-dihydro-3-quinolinecarboxylic acid] | 0.03 µg/mL | 0.06 µg/mL | 1 µg/mL | 0.25 µg/mL | 0.03 µg/mL |
| COc1c(-c2cc3c(s2)CCCC3(C)C)ccc2c(=O)c(C(=O)O)cn(C3CC3)c12 [Example 227, 1-cyclopropyl-7-(4,4-dimethyl-4,5,6,7-tetrahydro-1-benzothien-2-yl)-8-methoxy-4-oxo-1,4-dihydro-3-quinolinecarboxylic acid] | 0.5 µg/mL | 2 µg/mL | > 64 µg/mL | 2 µg/mL | 8 µg/mL |
| COc1c(-c2cc3c(s2)CCC(C)C3N)ccc2c(=O)c(C(=O)O)cn(C3CC3)c12.Cl (stereo not shown) [Example 199, 7-(4-amino-5-methyl-4,5,6,7-tetrahydro-1-benzothien-2-yl)-1-cyclopropyl-8-methoxy-4-oxo-1,4-dihydro-3-quinolinecarboxylic acid hydrochloride] | 0.03 µg/mL | 0.125 µg/mL | 0.25 µg/mL | 0.125 µg/mL | 0.06 µg/mL |
| COc1c(-c2cc3c(s2)CCCC3N2CC(N)C2)ccc2c(=O)c(C(=O)O)cn(C3CC3)c12.Cl.Cl (stereo not shown) [Example 212, 7-[4-(3-amino-1-azetidinyl)-4,5,6,7-tetrahydro-1-benzothien-2-yl]-1-cyclopropyl-8-methoxy-4-oxo-1,4-dihydro-3-quinolinecarboxylic acid dihydrochloride] | 0.125 µg/mL | 0.25 µg/mL | 0.5 µg/mL | 0.5 µg/mL | 0.125 µg/mL |
| COc1c(-c2cc3c(s2)CCCC3NCc2cccc(F)c2)ccc2c(=O)c(C(=O)O)cn(C3CC3)c12 (stereo not shown) [Example 104, 1-cyclopropyl-7-(4-((3-fluorobenzyl)amino)-4,5,6,7-tetrahydro-1-benzothien-2-yl)-8-methoxy-4-oxo-1,4-dihydro-3-quinolinecarboxylic acid hydrochloride] | 0.25 µg/mL | 0.25 µg/mL | 2 µg/mL | 1 µg/mL | 0.5 µg/mL |
| COc1c(-c2cc3c(s2)CCC(Br)C3=O)ccc2c(=O)c(C(=O)O)cn(C3CC3)c12 (stereo not shown) [Example 58, 7-(5-bromo-4-oxo-4,5,6,7-tetrahydro-1-benzothien-2-yl)-1-cyclopropyl-8-methoxy-4-oxo-1,4-dihydro-3-quinolinecarboxylic acid] | 0.004 µg/mL | 0.015 µg/mL | 0.25 µg/mL | 0.06 µg/mL | 0.06 µg/mL |

The next lines start with the values.

| Antibacterial Activity (MIC's), A [1] | Antibacterial Activity (MIC's), E [2] | Antibacterial Activity (MIC's), D [3] | Antibacterial Activity (MIC's), B [4] | Antibacterial Activity (MIC's), F [5] | Compound |
| --- | --- | --- | --- | --- | --- |
| 0.008 µg/mL | 0.015 µg/mL | 0.015 µg/mL | 0.015 µg/mL | 0.008 µg/mL | Cl.NC1CCCc2cc(-c3cc4c(cc3F)c(=O)c(C(=O)O)cn4C3CC3)sc21 (stereo not shown) [Example 310, 7-(7-amino-4,5,6,7-tetrahydro-1-benzothien-2-yl)-1-cyclopropyl-6-fluoro-4-oxo-1,4-dihydroquinoline-3-carboxylic acid hydrochloride] |
| 0.03 µg/mL | 0.015 µg/mL | 0.06 µg/mL | 0.125 µg/mL | 0.5 µg/mL | COc1c(-c2cc3c(s2)CC(N)C3)ccc2c(=O)c(C(=O)O)cn(C3CC3)c12.Cl (stereo not shown) [Example 249, 7-(5-amino-5,6-dihydro-4H-cyclopenta[b]thien-2-yl)-1-cyclopropyl-8-methoxy-4-oxo-1,4-dihydro-3-quinolinecarboxylic acid hydrochloride] |
| 0.06 µg/mL | 0.03 µg/mL | 0.25 µg/mL | 0.125 µg/mL | 0.06 µg/mL | CNC1CCCc2sc(-c3c(F)cc4c(=O)c(C(=O)O)cn(C5CC5)c4c3OC)cc21.Cl (stereo not shown) [Example 210, 1-cyclopropyl-6-fluoro-8-methoxy-7-(4-(methylamino)-4,5,6,7-tetrahydro-1-benzothien-2-yl)-4-oxo-1,4-dihydro-3-quinolinecarboxylic acid hydrochloride] |
| 0.03 µg/mL | 0.03 µg/mL | 0.06 µg/mL | 0.125 µg/mL | 0.125 µg/mL | Cl.NC1CCCc2sc(-c3ccc4c(=O)c(C(=O)O)cn(C5CC5)c4n3)cc21 (stereo not shown) [Example 200, 7-(4-amino-4,5,6,7-tetrahydro-1-benzothien-2-yl)-1-cyclopropyl-4-oxo-1,4-dihydro[1,8]naphthyridine-3-carboxylic acid hydrochloride] |
| 0.125 µg/mL | 0.06 µg/mL | 0.25 µg/mL | 0.5 µg/mL | 0.25 µg/mL | COc1c(-c2cc3c(s2)C(N)CNC3)ccc2c(=O)c(C(=O)O)cn(C3CC3)c12 (stereo not shown) [Example 208, 7-(7-amino-4,5,6,7-tetrahydrothieno[3,2-c]pyridin-2-yl)-1-cyclopropyl-8-methoxy-4-oxo-1,4-dihydro-3-quinolinecarboxylic acid] |
| 0.008 µg/mL | 0.015 µg/mL | 0.03 µg/mL | 0.03 µg/mL | 0.015 µg/mL | Cl.NC1CCCc2sc(-c3c(F)cc4c(=O)c(C(=O)O)cn(C5CC5)c4c3F)cc21 (stereo not shown) [Example 308, 7-(4-amino-4,5,6,7-tetrahydro-1-benzothien-2-yl)-1-cyclopropyl-6,8-difluoro-4-oxo-1,4-dihydroquinoline-3-carboxylic acid hydrochloride] |
